Source: patent publication US10961216B2, “Small molecule modulators of the androgen receptor” (Massachusetts Institute of Technology, priority 2017, dated 2021)
Converted amounts (≈) assume the structure as drawn. Like-named read-outs stand apart in the source and are kept apart here.

Columns and labels:
LNCaP = LNCaP reporter assay; assay type: cell-based; conditions: Homo sapiens
From the text: (§1) To meet this need, compounds binding to AR-v7 were identified using the combination of a small molecule microarray (SMM) screen of 50,000 compounds, qPCR, and reporter assays. The SMM was screened against a functional AR-truncate composed of the NTD and DBD (exons 1-3) and therefore targeting these domains specifically. Candidate compounds were further evaluated in a series of assays designed to show specificity to AR-sensitive cell lines.
Compounds of the invention may also be identified via a reporter assay. Reporter assays are commonly used to study signaling pathways, gene expression and regulation at the transcriptional level, and the structure of regulatory elements. In general, a reporter assay comprises a regulatory element of interest (e.g. promoter DNA) along with a reporter gene (e.g., gene encoding a reporter protein) cloned into a vector and transfected into cells. In certain embodiments, a reporter is a protein. In certain embodiments, a reporter is a protein with an easily measureable activity. “Easily measureable activity” (or simply “activity”) can refer to any activity that can be measured through methods known in the art, such as fluorescence, enzymatic activities that generate fluorescent or luminescent products, or indirectly with antibodies. […]

AR-v7 = target: T1, AR-v7 (Homo sapiens, UniProt P10275); assay: small molecule microarray (SMM) screen, binding to AR-v7; conditions: SMM screened against AR-truncate of NTD and DBD (exons 1-3), with qPCR and reporter assays
T1 construct: screened against a functional AR-truncate composed of the NTD and DBD (exons 1-3)
T1 sequence (P10275 1-628 limits assumed): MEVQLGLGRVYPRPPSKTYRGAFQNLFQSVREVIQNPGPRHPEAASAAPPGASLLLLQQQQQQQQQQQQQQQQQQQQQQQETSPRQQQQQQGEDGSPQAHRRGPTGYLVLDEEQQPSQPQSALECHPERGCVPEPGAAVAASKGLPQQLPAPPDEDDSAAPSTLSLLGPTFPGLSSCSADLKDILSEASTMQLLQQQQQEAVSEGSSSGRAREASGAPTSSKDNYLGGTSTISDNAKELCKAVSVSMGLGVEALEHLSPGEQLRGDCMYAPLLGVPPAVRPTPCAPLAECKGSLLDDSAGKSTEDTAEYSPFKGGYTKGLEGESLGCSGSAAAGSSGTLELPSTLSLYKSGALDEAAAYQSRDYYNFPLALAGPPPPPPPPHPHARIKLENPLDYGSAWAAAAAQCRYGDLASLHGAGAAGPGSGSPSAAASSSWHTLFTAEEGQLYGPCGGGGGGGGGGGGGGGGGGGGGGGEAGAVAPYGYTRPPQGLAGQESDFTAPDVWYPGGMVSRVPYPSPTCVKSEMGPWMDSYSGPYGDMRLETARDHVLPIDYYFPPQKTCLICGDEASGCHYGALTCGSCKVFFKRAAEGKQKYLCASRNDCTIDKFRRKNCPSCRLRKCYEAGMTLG
From the text: as §1

[1] = test system: PC3 cell line, an AR insensitive cell line; assay: cell viability assay (Cell-titer blue), PC3; assay type: cell-based; conditions: Homo sapiens, PC-3, read-out: PC3 CTB IC50
Method: (§2) All compounds were evaluated in a reporter gene assay (22Rv1 cell line lentiviral transduced with CMV-firefly luciferase) to monitor transcriptional effects and two cell viability assays (Cell-titer blue; PC3 cell line, an AR insensitive cell line, and LNCaP cell line, an AR sensitive cell line). The compounds were also monitored for aggregation.

[2] = test system: LNCaP cell line, an AR sensitive cell line; assay: cell viability assay (Cell-titer blue), LNCaP; assay type: cell-based; conditions: Homo sapiens, read-out: LNCaP CTB IC50
Method: as §2

Solubility = assay type: physicochemical
[3] = test system: 22Rv1 cell line lentiviral transduced with CMV-firefly luciferase; assay: reporter gene assay to monitor transcriptional effects; assay type: cell-based; conditions: Homo sapiens; 22Rv1, CMV-firefly luciferase
Method: as §2

Row | IC50 (LNCaP) | binding to AR-v7 (AR-v7) | IC50 [1] | IC50 [2] | Solubility (Solubility) | Solubility (Solubility; read-out: Solubility) | Structure (SMILES) | IC50 [3]
1 | – | – | – | 355 µM | 25 mM (≈ 11.1 mg/mL) | – | O=C(NCCC1CC2C=CC1C2)c1cccc(OC2CCN(C(=O)c3cccnc3)CC2)c1 (centres unmarked) [Compound I-9] | –
2 | – | – | – | – | 25 mM (≈ 10.2 mg/mL) | – | O=C(NCCC1CC2C=CC1C2)c1ccc(OC2CCN(C(=O)C3CC3)CC2)cc1 (centres unmarked) [Compound I-10] | –
3 | – | – | – | 172 µM | 25 mM (≈ 10.9 mg/mL) | – | O=C(NCC12CC3CC(CC(C3)C1)C2)c1cccc(OC2CCN(C(=O)C3CC3)CC2)c1 [Compound I-13] | –
4 | – | – | – | – | 25 mM (≈ 11.3 mg/mL) | – | CC(NC(=O)c1cccc(OC2CCN(C(=O)C3CC3)CC2)c1)C12CC3CC(CC(C3)C1)C2 (centres unmarked) [Compound I-14] | –
5 | – | – | – | 342 µM | 25 mM (≈ 11.7 mg/mL) | – | CCCC(CCC)C(=O)N1CCC(Oc2cccc(C(=O)NCCC3CC4C=CC3C4)c2)CC1 (centres unmarked) [Compound I-21] | –
6 | – | – | – | 3580 µM | – | 6.25 mM (≈ 3.17 mg/mL) | O=C(NCCC1CC2C=CC1C2)c1cccc(OC2CCN(C(=O)CCc3ccc(Cl)cc3)CC2)c1 (centres unmarked) [Compound I-22] | –
7 | – | – | – | 388 µM | 25 mM (≈ 10.2 mg/mL) | – | O=C(NCC1CC2C=CC1CC2)c1ccc(OC2CCN(C(=O)C3CC3)CC2)cc1 (centres unmarked) [Compound I-25] | –
8 | – | – | 341 µM | 222 µM | 25 mM (≈ 10.2 mg/mL) | – | O=C(NCCCc1ccccc1)c1cccc(OC2CCN(C(=O)C3CC3)CC2)c1 [Compound I-26] | –
9 | – | – | 49.9 µM | 28.5 µM | – | 12.5 mM (≈ 5.18 mg/mL) | O=C(Nc1ccc2ccccc2c1)c1cccc(OC2CCN(C(=O)C3CC3)CC2)c1 [Compound I-27] | –
10 | – | – | 176 µM | 698 µM | 25 mM (≈ 9.97 mg/mL) | – | O=C(Nc1ccc(Cl)cc1)c1cccc(OC2CCN(C(=O)C3CC3)CC2)c1 [Compound I-28] | –
11 | – | – | – | 25.1 µM | 25 mM (≈ 10.2 mg/mL) | – | CC(C)c1ccc(NC(=O)c2cccc(OC3CCN(C(=O)C4CC4)CC3)c2)cc1 [Compound I-29] | –
12 | – | – | – | 136 µM | 25 mM (≈ 9.11 mg/mL) | – | O=C(Nc1ccccc1)c1cccc(OC2CCN(C(=O)C3CC3)CC2)c1 [Compound I-30] | –
13 | – | – | 166 µM | 62.6 µM | 25 mM (≈ 9.46 mg/mL) | – | O=C(NCc1ccccc1)c1cccc(OC2CCN(C(=O)C3CC3)CC2)c1 [Compound I-31] | –
14 | – | – | 101 µM | 79.2 µM | 25 mM (≈ 9.96 mg/mL) | – | O=C(NCCC1CCCCC1)c1cccc(OC2CCN(C(=O)C3CC3)CC2)c1 [Compound I-32] | –
15 | – | – | 80.5 µM | – | 25 mM (≈ 11 mg/mL) | – | CC(=O)CCC(=O)N1CCC(Oc2cccc(C(=O)NCCC3CC4C=CC3C4)c2)CC1 (centres unmarked) [Compound I-36] | –
16 | – | – | 1150 µM | – | 25 mM (≈ 10.6 mg/mL) | – | O=C(NCC1C2C=CC(C2)C1CO)c1ccc(OC2CCN(C(=O)C3CC3)CC2)cc1 (centres unmarked) [Compound I-37] | –
17 | – | – | 1890 µM | – | – | 12.5 mM (≈ 5.83 mg/mL) | CCOC(=O)C1C2C=CC(C2)C1CNC(=O)c1ccc(OC2CCN(C(=O)C3CC3)CC2)cc1 (centres unmarked) [Compound I-38] | –
18 | – | – | 93.9 µM | 397 µM | 25 mM (≈ 10.9 mg/mL) | – | O=C(NCC1CC2C=CC1CC2)c1cccc(OC2CCN(C(=O)C(F)(F)F)CC2)c1 (centres unmarked) [Compound I-39] | –
19 | – | – | 90.3 µM | 120 µM | 25 mM (≈ 11.1 mg/mL) | – | O=C(NCC1CC2C=CC1CC2)c1cccc(OC2CCN(C(=O)c3cccnc3)CC2)c1 (centres unmarked) [Compound I-40] | –

Second part, the compound before the results:

Row | Structure (SMILES) | IC50 (LNCaP) | binding to AR-v7 (AR-v7) | IC50 [1] | IC50 [2] | Solubility (Solubility) | Solubility (Solubility; read-out: Solubility) | IC50 [3]
20 | Cc1c(C(=O)N(C)Cc2cccc3ncccc23)sc2ncnc(NCC3C[C@@H]4C=C[C@H]3C4)c12 (stereo partly drawn) [Compound (2), 4-((((1R,4R)-bicyclo[2.2.1]hept-5-en-2-yl)methyl)amino)-N,5-dimethyl-N-(quinolin-5-ylmethyl)thieno[2,3-d]pyrimidine-6-carboxamide] | 6.86 µM | found to bind to AR-v7 | – | – | – | – | –
21 | O=C(NCCC1CC2C=CC1C2)c1cccc(OC2CCN(C(=O)C3CCCC3)CC2)c1 (centres unmarked) [Compound I-3] | – | – | 3560 µM | 16.7 µM | 25 mM (≈ 10.9 mg/mL) | – | ~24.6 µM
22 | O=C(NCCC1CC2C=CC1C2)c1cccc(OC2CCN(C(=O)C3CCCCC3)CC2)c1 (centres unmarked) [Compound I-4] | – | – | 33400 µM | 24.3 µM | 25 mM (≈ 11.3 mg/mL) | – | ~25.2 µM
23 | O=C(NCCC1CC2C=CC1C2)c1cccc(OC2CCN(C(=O)C3CCC3)CC2)c1 (centres unmarked) [Compound I-5] | – | – | – | 24.6 µM | 25 mM (≈ 10.6 mg/mL) | – | ~25.2 µM
24 | O=C(NCCC1CC2C=CC1C2)c1cccc(OC2CCN(C(=O)c3ccccc3)CC2)c1 (centres unmarked) [Compound I-6] | – | – | – | 8.2 µM | 25 mM (≈ 11.1 mg/mL) | – | ~24.9 µM
25 | O=C(NCCC1CC2C=CC1C2)c1cccc(OC2CCN(C(=O)Cc3ccccc3)CC2)c1 (centres unmarked) [Compound I-7] | – | – | – | 52.4 µM | 25 mM (≈ 11.5 mg/mL) | – | ~25.9 µM
26 | O=C(NCCC1CC2C=CC1C2)c1cccc(OC2CCN(C(=O)C(F)(F)F)CC2)c1 (centres unmarked) [Compound I-8] | – | – | – | 70.5 µM | 25 mM (≈ 10.9 mg/mL) | – | 21.9 µM
27 | O=C(NCC1CC2C=CC1C2)c1cccc(OC2CCN(C(=O)C3CC3)CC2)c1 (centres unmarked) [Compound I-11] | – | – | – | – | 25 mM (≈ 9.86 mg/mL) | – | 28.3 µM
28 | O=C(NCC1CC2C=CC1C2)c1cccc(OC2CCN(C(=O)C(F)(F)F)CC2)c1 (centres unmarked) [Compound I-17] | – | – | – | 18.4 µM | 25 mM (≈ 10.6 mg/mL) | – | 5.21 µM
29 | O=C(NCC1CC2C=CC1C2)c1cccc(OC2CCN(C(=O)C3CCC3)CC2)c1 (centres unmarked) [Compound I-18] | – | – | – | 41.2 µM | 25 mM (≈ 10.2 mg/mL) | – | ~24.4 µM
30 | CC(=O)Oc1cccc(C(=O)NCC2CC3C=CC2CC3)c1 (centres unmarked) [Compound I-19] | – | – | – | – | 25 mM (≈ 7.48 mg/mL) | – | –
31 | O=C(NCC1CC2C=CC1CC2)c1cccc(O)c1 (centres unmarked) [Compound I-20] | – | – | – | – | 25 mM (≈ 6.43 mg/mL) | – | –
32 | O=C(NCC1CC2C=CC1CC2)c1cccc(OC2CCN(C(=O)C3CC3)CC2)c1 (centres unmarked) [Compound I-23] | – | – | – | 1020 µM | 25 mM (≈ 10.2 mg/mL) | – | ~25.5 µM
33 | CN(Cc1cccc2ncccc12)C(=O)c1cccc(OC2CCN(C(=O)C3CC3)CC2)c1 [Compound I-24] | – | – | – | 1650 µM | – | 12.5 mM (≈ 5.54 mg/mL) | 20.4 µM
34 | CCCCC(=O)N1CCC(Oc2cccc(C(=O)NCCC3CC4C=CC3C4)c2)CC1 (centres unmarked) [Compound I-34] | – | – | 55.8 µM | 28.8 µM | – | 12.5 mM (≈ 5.31 mg/mL) | ~27.9 µM
35 | C=CCCC(=O)N1CCC(Oc2cccc(C(=O)NCCC3CC4C=CC3C4)c2)CC1 (centres unmarked) [Compound I-35] | – | – | – | 26.5 µM | 25 mM (≈ 10.6 mg/mL) | – | 31.5 µM
36 | Cc1c(C(=O)N(C)Cc2cccc3ncccc23)sc2ncnc(NCC3C4C=CC(C4)C3CO)c12 (centres unmarked) [II-3] | – | – | 3210 µM | 493 µM | 25 mM (≈ 12.5 mg/mL) | – | –
37 | Cc1c(C(=O)N(C)Cc2cccc3ncccc23)sc2ncnc(NCCC3CCCCC3)c12 [II-4] | – | – | – | 10.7 µM | 25 mM (≈ 11.8 mg/mL) | – | 9.63 µM
38 | Cc1c(C(=O)N(C)Cc2cccc3ncccc23)sc2ncnc(NCC3CC4C=CC3CC4)c12 (centres unmarked) [II-5] | – | – | 782 µM | 8.09 µM | 25 mM (≈ 12.1 mg/mL) | – | 2.36 µM
39 | Cc1c(C(=O)N(C)Cc2cccc3ncccc23)sc2ncnc(NCCC3CC4C=CC3C4)c12 (centres unmarked) [II-6] | – | – | 1680 µM | 14.1 µM | 25 mM (≈ 12.1 mg/mL) | – | 8.29 µM
40 | Cc1c(C(=O)Nc2ccc3ccccc3c2)sc2ncnc(NCC3CC4C=CC3C4)c12 (centres unmarked) [II-7] | – | – | – | 68.2 µM | 25 mM (≈ 11 mg/mL) | – | –
